Reference: PubChem BioAssay (NCI)
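All cell lines were grown in 96-well plates and treated with compound for 48 hours. TGI: total growth inhibition.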

Columns and labels:
Test in all cases: NCI tumour cell line growth inhibition, 48 h
[1] = test system: A549 NSCLC
[2] = test system: CAKI-1 renal
[3] = test system: COLO 205 colon
[4] = test system: DMS 114 small cell lung
[5] = test system: DMS 273 small cell lung
[6] = test system: HCC-2998 colon
[7] = test system: HCT-116 colon
[8] = test system: HL-60(TB) leukemia
[9] = test system: HOP-18 NSCLC
[10] = test system: HOP-62 NSCLC
[11] = test system: HOP-92 NSCLC
[12] = test system: HT29 colon
[13] = test system: K-562 leukemia
[14] = test system: KM12 colon
[15] = test system: KM20L2 colon
[16] = test system: LOX IMVI melanoma
[17] = test system: M19-MEL melanoma
[18] = test system: MALME-3M melanoma
[19] = test system: MCF7 breast
[20] = test system: MOLT-4 leukemia
[21] = test system: NCI-H226 lung
[22] = test system: NCI-H23 lung
[23] = test system: NCI-H460 lung
[24] = test system: NCI-H522 lung
[25] = test system: NCI/ADR-RES ovarian
[26] = test system: OVCAR-3 ovarian
[27] = test system: OVCAR-4 ovarian
[28] = test system: OVCAR-5 ovarian
[29] = test system: OVCAR-8 ovarian
[30] = test system: P388 leukemia
[31] = test system: P388/ADR leukemia
[32] = test system: RPMI-8226 leukemia
[33] = test system: RXF 393 renal
[34] = test system: SF-268 CNS
[35] = test system: SF-295 CNS
[36] = test system: SF-539 CNS
[37] = test system: SK-MEL-2 melanoma
[38] = test system: SK-MEL-28 melanoma
[39] = test system: SK-MEL-5 melanoma
[40] = test system: SK-OV-3 ovarian
[41] = test system: SN12C renal
[42] = test system: SNB-78 CNS
[43] = test system: SW-620 colon
[44] = test system: U251 CNS
[45] = test system: UACC-257 melanoma
[46] = test system: UACC-62 melanoma
[47] = test system: UO-31 renal
[48] = test system: XF 498 CNS

In the case of COC1=C(C)C(=O)C2=C(C1=O)[C@@H]1[C@@H]3Cc4c(OC(=O)CO)c(C)c(OC)c(O)c4[C@H](CNC(=O)C(C)=O)N3[C@@H](C#N)[C@H](C2)N1C, the TGI [1] is reported as 49000 nM, the TGI [2] is reported as 7870 nM and the TGI [3] is reported as under 30.9 nM. For the same molecule, the TGI [4] was under 10 nM, the TGI [5] was 65 nM and the TGI [6] was 226 nM. It also gave a TGI [7] of 12100 nM, a TGI [8] of 2750 nM and a TGI [9] of 96.6 nM. It also gave a TGI [10] of 1160 nM, a TGI [11] of under 25.8 nM and a TGI [12] of 10600 nM. It also gave a TGI [13] of 7770 nM, a TGI [14] of 2050 nM and a TGI [15] of 686 nM. The TGI [16] was under 10 nM, the TGI [17] was 46.3 nM and the TGI [18] was 351 nM. For the same molecule, the TGI [19] was 13900 nM, the TGI [20] was 173 nM and the TGI [21] was 834 nM. It also gave a TGI [22] of under 17.6 nM, a TGI [23] of 1830 nM and a TGI [24] of under 13.9 nM. The TGI [25] was 17100 nM, the TGI [26] was 36.6 nM and the TGI [27] was 484 nM. For the same molecule, the TGI [28] was 447 nM, the TGI [29] was 684 nM and the TGI [30] was 20.5 nM. It also gave a TGI [31] of 1820 nM, a TGI [32] of 389 nM and a TGI [33] of 39.2 nM. It also gave a TGI [34] of 208 nM, a TGI [35] of 2280 nM and a TGI [36] of 240 nM. The TGI [37] was 35.9 nM, the TGI [38] was 1200 nM and the TGI [39] was 39.3 nM. It also gave a TGI [40] of 28600 nM, a TGI [41] of 10800 nM and a TGI [42] of 998 nM. For the same molecule, the TGI [43] was 3240 nM, the TGI [44] was 4090 nM and the TGI [45] was 36.4 nM. The TGI [46] was under 36.8 nM, the TGI [47] was 362 nM and the TGI [48] was under 10 nM.
